From the Deep4Chem optical property database come the findings set out here.

A short description of the data set: photoluminescence quantum yield (fraction); solvent given as SMILES.
Setting [1] is: in O=P(c1ccccc1)(c1ccccc1)c1ccccc1Oc1ccccc1P(=O)(c1ccccc1)c1ccccc1.

The structures appear in SMILES notation. Values joined by “and” are separate entries in the source; they are usually repeats but may differ in a detail not shown here. Equal entries are not always repeated.

With `COc1cc2c(cc1-c1ccccc1)Cc1c3c(c4c(c1-2)-c1cc(OC)c(-c2ccccc2)cc1C4)C(=O)N(CCC(C)C)C3=O`, the photoluminescence quantum yield is 0.53 (in C1CCOC1); 0.46 (in CC#N); 0.38 (in CC(C)=O); 0.61 (in CCOC(C)=O); 0.47 (in CS(C)=O); 0.48 (in Cc1ccccc1). In addition, the photoluminescence quantum yield reads like this: (in ClC(Cl)Cl) 0.64; (in ClCCl) 0.63.

Regarding `O=C(O)c1ccc(-c2ccc(-c3nc(-c4ccccc4)c4ccccn34)cc2)s1`, the photoluminescence quantum yield (in CC#N) came out at 0.44.

As for `CC(C)(C)C1CCC(=CS/C=C/c2ccc(-c3ccc(/C=C/SC=C4CCC(C(C)(C)C)CC4)cc3)cc2)CC1` (centres undefined), the photoluminescence quantum yield (in ClCCl) is 0.233.

Turning to `CC1=CC(C)=[N+]2C1=C(c1ccc(N3CCCCC3)cc1)c1c(C)cc(C)n1[B-]2(F)F`, the photoluminescence quantum yield was 0.008 (in C1CCOC1); 0.005 (in CC#N); 0.024 (in CC(=O)C(C)(C)C); 0.002 (in CC(C)=O); 0.384 (in CCCCCC); 0.006 (in CCOC(C)=O).

In turn, `Nc1ccc2c(c1)C(=O)c1ccccc1-2` gave a photoluminescence quantum yield (in C1CCCCC1) of 0.0086 and a photoluminescence quantum yield (in c1ccccc1) of 0.00099.

As to `CCn1c2ccccc2c2cc3c(cc21)c1ccccc1n3CC`, the photoluminescence quantum yield (in ClC(Cl)Cl) was 0.13.

Under “in C1CCCCC1”, `N#Cc1cc(C#N)c(-c2ccc(N(c3ccccc3)c3ccccc3)cc2)cc1-c1ccc(N(c2ccccc2)c2ccccc2)cc1` showed a photoluminescence quantum yield of 0.75.

Molecule `CCCCc1cc(-c2cccc(COC)c2)oc1-c1cccc(COC)c1` had a photoluminescence quantum yield (in ClC(Cl)Cl) of 0.87.

In turn, `CCCCCCOc1cc(N(CC)CC)ccc1/C=C(\C#N)c1ccc(/C=C/C(=C(C#N)C#N)c2ccc(N(c3ccccc3)c3ccccc3)cc2)s1` yielded a photoluminescence quantum yield (in ClCCl) of 0.027.

Under “in CCO”, `CNc1cc2nc3cc(Cl)c(Cl)cc3nc2cc1NC` had a photoluminescence quantum yield of 0.14.

`O=C(O)CCCc1ccc2ccc3cccc4ccc1c2c34`: the photoluminescence quantum yield (in CO) is 0.68.

As to `C#CCNC1=C2C=C(c3cc4n(c3)[B-](F)(F)[N+]3=CC=CC3=C4c3c(C)cc(C)cc3C)C(C)=[N+]2[B-](F)(F)n2c(C)ccc21`, the photoluminescence quantum yield is, setting by setting: (in C1CCCCC1) 0.42; (in CCOC(C)=O) 0.06.

`Cc1cc(N(C)C)ccc1C1=C2C=CC(=[N+](C)C)C=C2[Si](C)(C)c2cc(N(C)C)ccc21` came in with a photoluminescence quantum yield (in O) of 0.001.

In turn, `N#Cc1nn(-c2ccc(Cl)cc2)nc1N1CCCC1` displayed a photoluminescence quantum yield (in CC#N) of 0.829.

Under “in ClCCl”, `CCCCC(CC)COc1ccc2nc(-c3ccc(-c4c(C)noc4C)s3)sc2c1` (centres undefined) came in with a photoluminescence quantum yield of 0.72.

Molecule `O=[N+]([O-])c1ccc(C#Cc2ccc3ccc(C#Cc4ccc([N+](=O)[O-])cc4)cc3c2)cc1` gave a photoluminescence quantum yield (in ClCCl) of 0.007.

`CCC1(CC)c2ccccc2-c2c1c1c(c3c2C(CC)(CC)c2cc(/C=C/c4cccs4)ccc2-3)C(CC)(CC)c2ccccc2-1` gave a photoluminescence quantum yield (in C1CCOC1) of 0.23.

Take `COc1ccc2c(-c3nc(-c4ccccc4F)no3)cc(=O)oc2c1`: the photoluminescence quantum yield is, setting by setting: (in CCO) 0.57; (in ClC(Cl)Cl) 0.25.

`C(=C\c1ncnc2ccccc12)/c1ccc(N(c2ccccc2)c2ccccc2)cc1` had a photoluminescence quantum yield (in ClCCl) of 0.25.

For the setting “in ClCCl”, `COc1cccc(C2=C3C=C(/C=C/C(=O)OC(C)(C)C)C=[N+]3[B-](F)(F)n3cccc32)c1` yielded a photoluminescence quantum yield of 0.09.

In turn, `CN1CCCc2cc(C3=Cc4cccc[n+]4[B-](F)(F)O3)ccc21` showed a photoluminescence quantum yield (in ClC(Cl)Cl) of 0.55.

Take `CC(C)(C)c1cc(C(C)(C)C)c(-c2nnc(-c3ccc(-n4c5ccccc5c5ccccc54)cc3)o2)c(C(C)(C)C)c1`: the photoluminescence quantum yield (in Cc1ccccc1) stood at 0.62.

`O=C1c2ccccc2-c2cc3ccccc3c(=O)n21` showed a photoluminescence quantum yield (in CC#N) of 0.16, a photoluminescence quantum yield (in CO) of 0.02, a photoluminescence quantum yield (in CS(C)=O) of 0.12 and a photoluminescence quantum yield (in ClC(Cl)Cl) of 0.18.

Consider `C(S/C=C/c1ccc(/C=C/SC=C2CCCCCC2)cc1)=C1CCCCCC1`, for which, for the setting “in ClCCl”, the photoluminescence quantum yield came to 0.109.

`c1ccc(-c2nc(-c3ccccc3)nc(-c3ccc(-n4c5ccccc5c5cc6c(cc54)C4c5ccccc5C6c5ccccc54)cc3)n2)cc1`: the photoluminescence quantum yield was determined as 0.77 (in Cc1ccccc1) and 0.4 under setting [1].

Regarding `COc1cc(/C=C/c2nc3ccccc3s2)c(OC)cc1/C=C/c1nc(C)nc(/C=C/c2cc(OC)c(/C=C/c3nc4ccccc4s3)cc2OC)n1`, the photoluminescence quantum yield runs as follows: (in C1CCOC1) 0.54; (in CC#N) 0.03; (in ClC(Cl)Cl) 0.5; (in ClCCl) 0.46.

As for `Cc1ccccc1C(=O)NN1C2=C(CC3=C1CC(C)(C)CC3=O)C(=O)CC(C)(C)C2`, the photoluminescence quantum yield is, setting by setting: (in C1CCOC1) 0.26; (in CC#N) 0.7; (in CC(C)=O) 0.53; (in CCCCCO) 0.5; (in CO) 0.3; (in ClC(Cl)Cl) 0.64. Moreover, the photoluminescence quantum yield (in ClCCl) is 0.47.

For `C(=C\c1ccc(Nc2ccccc2)cc1)/c1ccccc1`, the photoluminescence quantum yield amounted to 0.3 (in CC#N) and 0.51 (in CCCCCC).

As to `c1ccc2ccccc2c1`, where the note is “in C1CCCCC1”, the photoluminescence quantum yield was 0.23 and 0.42.

`F[B-]1(F)n2c(/C=C/c3ccc(C(=C(c4ccccc4)c4ccccc4)c4ccccc4)cc3)ccc2C(c2ccccc2)=C2C=CC(/C=C/c3ccc(C(=C(c4ccccc4)c4ccccc4)c4ccccc4)cc3)=[N+]21` registered a photoluminescence quantum yield (in C1CCOC1) of 0.42.

On to `COc1ccc(-c2nc(-c3ccc(C#N)cc3)[nH]c2-c2ccc(OC)cc2)cc1`, for which the photoluminescence quantum yield (in CO) was 0.6.

For `C(=C\c1c2ccccc2cc2ccccc12)/c1ccc2ccccc2n1`, the photoluminescence quantum yield amounted to 0.41 (in CC1CCCCC1) and 0.04 (in CC#N).

`CC1(C)c2ccccc2N(c2ccc(-c3nc(-c4ccccc4)cc(-c4ccccc4)n3)cc2)c2ccccc21` showed a photoluminescence quantum yield (in CC#N) of 0.018, a photoluminescence quantum yield (in Cc1ccccc1) of 0.339, a photoluminescence quantum yield (in ClCCl) of 0.632 and a photoluminescence quantum yield under setting [1] of 0.61.

Molecule `COc1ccc(-c2c3cc4ccccc4cc3c(C#Cc3ccccc3)c3cc4ccccc4cc23)cc1` displayed a photoluminescence quantum yield (in ClCCl) of 0.02.

For `O=C1c2ccccc2-c2cccc(O)c21`, the photoluminescence quantum yield (in C1CCCCC1) was 0.0129; the photoluminescence quantum yield (in C1COCCO1) came to 0.0284; the photoluminescence quantum yield (in CC#N) was determined as 0.053; the photoluminescence quantum yield (in CC(C)O) amounted to 0.024; the photoluminescence quantum yield (in CCCCO) stood at 0.022; the photoluminescence quantum yield (in CCCO) was found to be 0.021. Further, the photoluminescence quantum yield by setting is: (in CCO) 0.0197; (in CCOC(C)=O) 0.0383; (in CCOCC) 0.022; (in CO) 0.012.

Take `c1ccc(-c2cc(-c3ccc(-c4nc(-c5ccccn5)c(-c5ccccn5)[nH]4)cc3)cc(-c3ccccn3)n2)nc1`: the photoluminescence quantum yield by setting is: (in C1CCOC1) 0.06; (in CC#N) 0.08; (in CC(C)=O) 0.201; (in CCCCCC) 0.006; (in CCO) 0.202; (in CCOC(C)=O) 0.153. Besides, the photoluminescence quantum yield runs as follows: (in CN(C)C=O) 0.135; (in CO) 0.078; (in CS(C)=O) 0.111; (in ClC(Cl)Cl) 0.13; (in ClCCl) 0.145; (in O) 0.045.

Molecule `N#Cc1ccc(/C=C2\N=C(c3ccccc3)NC2=O)cc1` had a photoluminescence quantum yield (in C1COCCO1) of 0.158.

In turn, `CCN(CC)c1ccc2c(-c3ccccc3C(=O)O)c3c([o+]c2c1)/C(=C/c1ccc(N(C)C)cc1)CCC3` gave a photoluminescence quantum yield (in ClCCl) of 0.04.

Regarding `O=c1oc2ccc(Cl)cc2cc1-c1cc2cc(Cl)ccc2o1`, the photoluminescence quantum yield (in CS(C)=O) is 0.2.

`CCN(C)c1ccc(C2=C3C(C)=CC(C)=[N+]3[B-](F)(F)n3c(C)cc(C)c32)cc1` registered a photoluminescence quantum yield (in CO) of 0.44.

Consider `COc1ccc(-c2csc(/C(C#N)=C/c3ccc(C(F)(F)F)cc3)n2)cc1`, for which the photoluminescence quantum yield (in CC#N) came out at 0.015.

Consider `COc1ccc(N(c2ccc(OC)cc2)c2ccc3c(c2)C2(c4cc(N(c5ccc(OC)cc5)c5ccc(OC)cc5)ccc4C=C3)c3ccccc3-c3ccccc32)cc1`, for which the photoluminescence quantum yield (in ClCCl) came to 0.9.

`O=Cc1nc2ccc(C#Cc3ccc(N(c4ccccc4)c4ccccc4)cc3)cc2s1` gave a photoluminescence quantum yield (in Cc1ccccc1) of 0.57.

Under “in C1CCOC1”, `CCCCCCCCCCCCOc1cc(C(=O)Nc2ccc(-c3ccc4c(c3)C(=O)c3cc(-c5ccc(NC(=O)c6cc(OCCCCCCCCCCCC)c(OCCCCCCCCCCCC)c(OCCCCCCCCCCCC)c6)cc5)ccc3-4)cc2)cc(OCCCCCCCCCCCC)c1OCCCCCCCCCCCC` registered a photoluminescence quantum yield of 0.06.

Take `N#Cc1cccc(N)c1`: the photoluminescence quantum yield came to 0.062 (in C1CCCCC1); 0.32 (in CC#N); 0.16 (in CCCCCC); 0.19 (in CCO); 0.0019 (in O); 0.0054 (in OCC(F)(F)F).

`CCn1c2ccccc2sc2c(C#N)c3oc4ccccc4oc3c(C#N)c21` came in with a photoluminescence quantum yield (in ClC(Cl)Cl) of 0.23.

`C(#Cc1ccc(C#Cc2ccc(C#Cc3ccccc3)cc2)cc1)c1ccccc1`: under “in ClC(Cl)Cl”, the photoluminescence quantum yield was 0.61.

For the setting “in C1CCCCC1”, `CB1C=Cc2ccc3ccccc3c2N1` returned a photoluminescence quantum yield of 0.7.

Consider `CN(C)c1ccc(-c2nc(-c3ccc(N(C)C)cc3)c3ccccc3n2)cc1`, for which, where the note is “in ClCCl”, the photoluminescence quantum yield came out at 0.8.

The molecule `CCCCN(CCCC)c1ccc2c(c1)C#CC#Cc1cc(N(CCCC)CCCC)ccc1C#Cc1cc(c3cc1C#Cc1ccc(C(F)(F)F)cc1C#CC#Cc1cc(C(F)(F)F)ccc1C#C3)C#C2` had a photoluminescence quantum yield (in ClCCl) of 0.15.

In turn, `Cc1cccc(-c2c3ccccc3c(-c3cccc(C)n3)c3ccccc23)n1` yielded a photoluminescence quantum yield (in ClCCl) of 0.77.
